Assay results as given in patent US10500166B2, “Methods for the treatment of erectile dysfunction using fispemifene” (QUATRX PHARMACEUTICALS, priority 2007, dated 2019).

Tests used:
[1] = system: total testosterone; assay: Example 3 study in hypogonadal men: morning serum total testosterone (ITT); format: in vivo, human
Experimental: A randomized, double-blind, placebo controlled, parallel-group study of once-daily doses of fispemifene (100, 200, and 300 mg/day) given for 4 weeks was conducted in a population of hypogonadal men. Subjects were required to meet all of the following inclusion criteria at screening and prior to randomization to be eligible for the study:
There were 77 subjects total. The number of subjects randomized to the 100 mg fispemifene, 200 mg fispemifene, 300 mg fispemifene, and placebo arms were 21, 21, 19, and 16, respectively.
Subjects were randomly assigned to one of four treatment groups in a 1:1:1:1 ratio: • Treatment A (100 mg): fispemifene 100 mg+placebo+placebo; • Treatment B (200 mg): fispemifene 100 mg+fispemifene 100 mg+placebo; • Treatment C (300 mg): fispemifene 100 mg+fispemifene 100 mg+fispemifene 100 mg; and • Treatment D (Placebo): placebo+placebo+placebo.
Subjects took one dose (three capsules) of study medication once a day at home for 4 weeks. Capsules were to be taken in the morning immediately after breakfast, with the exception of the morning of the Week 4 visit. Capsules were not to be taken on the morning of the Week 4 visit because trough plasma levels of fispemifene were determined by a blood sample taken at this visit. Each subject was randomly assigned to treatment with one of the 3 different dose regimens of fispemifene or placebo vehicle. Each subject received a 4 week supply of study drug.
Blood samples were taken from the subjects within 1 week prior to dosing with study drug to establish baseline values; after 2 and 4 weeks of randomization; and 2 weeks after the last dose of study drug. Serum was prepared from those samples and used to determine the mean % change from baseline in total testosterone, free testosterone, SHBG (sex hormone-binding globulin), DHT (dihydrotestosterone), E2 (estradiol), LH (luteinizing hormone), FSH (follicle stimulating hormone), and inhibin B.
The primary efficacy endpoint was defined as percent change from baseline in morning total testosterone levels at Week 4. The intent-to-treat (“ITT”) population was the primary population for analysis. The secondary efficacy endpoints included:
2. Percent change from baseline in total testosterone levels at Weeks 2 and 6; and […]

[2] = system: FSH; assay: Phase I repeated dose study 101-50202: serum FSH; format: in vivo, human
Text: Fispemifene has been studied in two phase I studies in humans—in a single dose and a repeated dose study. Effect of fispemifene on hormone levels was one main focus of the repeated dose study. The phase I repeated dose study (number 101-50202) was a randomized, double-blind, placebo-controlled 28-day dose-escalation study performed in 31 healthy, elderly men, aged 50-68 years. The main objective of the study was to investigate the tolerability, safety and pharmacokinetics of fispemifene after repeated oral doses, but the study focused also on the effects of fispemifene on serum free and total testosterone, estradiol, and other relevant hormones. The fispemifene doses 10, 30, 100 and 300 mg per day and placebo were administered once every morning as capsules containing 10 mg or 100 mg of fispemifene, or placebo.
The variables for safety and tolerability were adverse events, vital signs, 12-lead ECG, clinical laboratory evaluations, physical examination, ultrasound examinations (mammary glands) and inhibin B. For pharmacokinetics, the concentrations of fispemifene and its metabolite(s) were to be evaluated. For pharmacodynamics, serum concentrations of FSH, LH, estradiol, testosterone, SHBG, prolactin, aldosterone, cortisol and TSH before and during treatment were measured and compared with the concentrations in the placebo-group.

[3] = 100 mg/day, Week 6 (2 weeks after discontinuation)
[4] = 100 mg/day, to Week 6 (2 weeks after discontinuation)
[5] = 200 mg/day, Week 6 (2 weeks after discontinuation)
[6] = 200 mg/day, to Week 6 (2 weeks after discontinuation)
[7] = 300 mg/day, Week 6 (2 weeks after discontinuation)
[8] = 300 mg/day, to Week 6 (2 weeks after discontinuation)

In the case of `OCCOCCOc1ccc(/C(=C(/CCCl)c2ccccc2)c2ccccc2)cc1` [Fispemifene, (Z)-2-{2-[4-(4-Chloro-1,2-diphenylbut-1-enyl)phenoxy]ethoxy}ethanol], the “Total Testosterone, Max” value ([1]; 100 mg/day, Baseline (Visit 2)) is reported as 347.0 ng/dL, the “Total Testosterone, Mean ± SD” value ([1]; 100 mg/day, Baseline (Visit 2)) is reported as 248.6 ± 68.90 ng/dL and the “Total Testosterone, Median” value ([1]; 100 mg/day, Baseline (Visit 2)) is reported as 266.0 ng/dL. For the same molecule, the “Total Testosterone, Min” value ([1]; 100 mg/day, Baseline (Visit 2)) was 101.0 ng/dL, the “Total Testosterone, Max” value ([1]; 100 mg/day, Week 2) was 585.0 ng/dL and the “Total Testosterone, Mean ± SD” value ([1]; 100 mg/day, Week 2) was 369.9 ± 88.23 ng/dL. For the same molecule, the “Total Testosterone, Median” value ([1]; 100 mg/day, Week 2) was 350.0 ng/dL, the “Total Testosterone, Min” value ([1]; 100 mg/day, Week 2) was 235.0 ng/dL and the “Total Testosterone, Max” value ([1]; 100 mg/day, Week 4) was 535.0 ng/dL. The “Total Testosterone, Mean ± SD” value ([1]; 100 mg/day, Week 4) was 371.6 ± 83.36 ng/dL, the “Total Testosterone, Median” value ([1]; 100 mg/day, Week 4) was 353.0 ng/dL and the “Total Testosterone, Min” value ([1]; 100 mg/day, Week 4) was 246.0 ng/dL. For the same molecule, the “Total Testosterone, Max” value [1, 3] was 414.0 ng/dL, the “Total Testosterone, Mean ± SD” value [1, 3] was 271.9 ± 69.21 ng/dL and the “Total Testosterone, Median” value [1, 3] was 265.0 ng/dL. For the same molecule, the “Total Testosterone, Min” value [1, 3] was 121.0 ng/dL, the “Total Testosterone, % Change from Baseline, Max” value ([1]; 100 mg/day, to Week 2) was 133% and the “Total Testosterone, % Change from Baseline, Median” value ([1]; 100 mg/day, to Week 2) was 45%. The “Total Testosterone, % Change from Baseline, Min” value ([1]; 100 mg/day, to Week 2) was 14%, the “Total Testosterone, % Change from Baseline, Max” value ([1]; 100 mg/day, to Week 4) was 198% and the “Total Testosterone, % Change from Baseline, Median” value ([1]; 100 mg/day, to Week 4) was 35%. The “Total Testosterone, % Change from Baseline, Min” value ([1]; 100 mg/day, to Week 4) was 7%, the “Total Testosterone, % Change from Baseline, Max” value [1, 4] was 119% and the “Total Testosterone, % Change from Baseline, Median” value [1, 4] was 11%. For the same molecule, the “Total Testosterone, Max” value ([1]; 200 mg/day, Baseline (Visit 2)) was 334.0 ng/dL, the “Total Testosterone, Mean ± SD” value ([1]; 200 mg/day, Baseline (Visit 2)) was 249.1 ± 60.90 ng/dL and the “Total Testosterone, Median” value ([1]; 200 mg/day, Baseline (Visit 2)) was 253.0 ng/dL. The “Total Testosterone, Min” value ([1]; 200 mg/day, Baseline (Visit 2)) was 133.0 ng/dL, the “Total Testosterone, Max” value ([1]; 200 mg/day, Week 2) was 497.0 ng/dL and the “Total Testosterone, Mean ± SD” value ([1]; 200 mg/day, Week 2) was 370.0 ± 72.44 ng/dL. For the same molecule, the “Total Testosterone, Median” value ([1]; 200 mg/day, Week 2) was 354.0 ng/dL, the “Total Testosterone, Min” value ([1]; 200 mg/day, Week 2) was 238.0 ng/dL and the “Total Testosterone, Max” value ([1]; 200 mg/day, Week 4) was 626.0 ng/dL. The “Total Testosterone, Mean ± SD” value ([1]; 200 mg/day, Week 4) was 387.3 ± 107.39 ng/dL, the “Total Testosterone, Median” value ([1]; 200 mg/day, Week 4) was 372.0 ng/dL and the “Total Testosterone, Min” value ([1]; 200 mg/day, Week 4) was 241.0 ng/dL. For the same molecule, the “Total Testosterone, Max” value [1, 5] was 539.0 ng/dL, the “Total Testosterone, Mean ± SD” value [1, 5] was 276.2 ± 97.28 ng/dL and the “Total Testosterone, Median” value [1, 5] was 240.0 ng/dL. The “Total Testosterone, Min” value [1, 5] was 162.0 ng/dL, the “Total Testosterone, % Change from Baseline, Max” value ([1]; 200 mg/day, to Week 2) was 142% and the “Total Testosterone, % Change from Baseline, Median” value ([1]; 200 mg/day, to Week 2) was 48%. The “Total Testosterone, % Change from Baseline, Min” value ([1]; 200 mg/day, to Week 2) was 17%, the “Total Testosterone, % Change from Baseline, Median” value ([1]; 200 mg/day, to Week 4) was 60% and the “Total Testosterone, % Change from Baseline, Max” value [1, 6] was 79%. For the same molecule, the “Total Testosterone, % Change from Baseline, Median” value [1, 6] was 11%, the “Total Testosterone, Max” value ([1]; 300 mg/day, Baseline (Visit 2)) was 348.0 ng/dL and the “Total Testosterone, Mean ± SD” value ([1]; 300 mg/day, Baseline (Visit 2)) was 234.2 ± 77.69 ng/dL. For the same molecule, the “Total Testosterone, Median” value ([1]; 300 mg/day, Baseline (Visit 2)) was 246.0 ng/dL, the “Total Testosterone, Min” value ([1]; 300 mg/day, Baseline (Visit 2)) was 17.0 ng/dL and the “Total Testosterone, Max” value ([1]; 300 mg/day, Week 2) was 526.0 ng/dL. For the same molecule, the “Total Testosterone, Mean ± SD” value ([1]; 300 mg/day, Week 2) was 379.2 ± 122.04 ng/dL, the “Total Testosterone, Median” value ([1]; 300 mg/day, Week 2) was 427.0 ng/dL and the “Total Testosterone, Min” value ([1]; 300 mg/day, Week 2) was 13.0 ng/dL. The “Total Testosterone, Max” value ([1]; 300 mg/day, Week 4) was 643.0 ng/dL, the “Total Testosterone, Mean ± SD” value ([1]; 300 mg/day, Week 4) was 430.7 ± 163.39 ng/dL and the “Total Testosterone, Median” value ([1]; 300 mg/day, Week 4) was 479.0 ng/dL. The “Total Testosterone, Min” value ([1]; 300 mg/day, Week 4) was 8.0 ng/dL, the “Total Testosterone, Max” value [1, 7] was 423.0 ng/dL and the “Total Testosterone, Mean ± SD” value [1, 7] was 279.2 ± 102.84 ng/dL. For the same molecule, the “Total Testosterone, Median” value [1, 7] was 293.0 ng/dL, the “Total Testosterone, Min” value [1, 7] was 16.0 ng/dL and the “Total Testosterone, % Change from Baseline, Max” value ([1]; 300 mg/day, to Week 2) was 101%. The “Total Testosterone, % Change from Baseline, Median” value ([1]; 300 mg/day, to Week 2) was 65%, the “Total Testosterone, % Change from Baseline, Max” value ([1]; 300 mg/day, to Week 4) was 181% and the “Total Testosterone, % Change from Baseline, Median” value ([1]; 300 mg/day, to Week 4) was 80%. The “Total Testosterone, % Change from Baseline, Max” value [1, 8] was 77%, the “Total Testosterone, % Change from Baseline, Median” value [1, 8] was 14% and the “effect on serum total testosterone concentration” value ([1]; hypogonadal men, within 14 days from the start of treatment, maintained during treatment) was “clinically and statistically significant and dose dependent increase to, but not beyond, the normal range”. The “Serum FSH, Mean” value ([2]; 10 mg/day, Baseline) was 5.42 U/L, the “Serum FSH, Mean” value ([2]; 10 mg/day, Day 8) was 5.87 U/L and the “Serum FSH, Mean” value ([2]; 10 mg/day, Day 15) was 5.20 U/L. For the same molecule, the “Serum FSH, Mean” value ([2]; 10 mg/day, Day 22) was 6.60 U/L, the “Serum FSH, Mean” value ([2]; 10 mg/day, Day 28) was 5.66 U/L and the “Serum FSH, Mean” value ([2]; 30 mg/day, Baseline) was 9.14 U/L. For the same molecule, the “Serum FSH, Mean” value ([2]; 30 mg/day, Day 8) was 9.78 U/L, the “Serum FSH, Mean” value ([2]; 30 mg/day, Day 15) was 10.14 U/L and the “Serum FSH, Mean” value ([2]; 30 mg/day, Day 22) was 10.18 U/L. The “Serum FSH, Mean” value ([2]; 30 mg/day, Day 28) was 8.42 U/L, the “Serum FSH, Mean” value ([2]; 100 mg/day, Baseline) was 6.30 U/L and the “Serum FSH, Mean” value ([2]; 100 mg/day, Day 8) was 7.68 U/L. For the same molecule, the “Serum FSH, Mean” value ([2]; 100 mg/day, Day 15) was 8.10 U/L, the “Serum FSH, Mean” value ([2]; 100 mg/day, Day 22) was 8.20 U/L and the “Serum FSH, Mean” value ([2]; 100 mg/day, Day 28) was 7.73 U/L. The “Serum FSH, Mean” value ([2]; 300 mg/day, Baseline) was 6.80 U/L, the “Serum FSH, Mean” value ([2]; 300 mg/day, Day 8) was 8.80 U/L and the “Serum FSH, Mean” value ([2]; 300 mg/day, Day 15) was 8.73 U/L. For the same molecule, the “Serum FSH, Mean” value ([2]; 300 mg/day, Day 22) was 8.85 U/L, the “Serum FSH, Mean” value ([2]; 300 mg/day, Day 28) was 7.57 U/L and the “effect on serum concentration of FSH” value ([2]; during the 28 days of treatment) was “increased”.
